Our source for the Kd and IC50 values is patent US9938261B2, “Heterocyclic compounds and methods of use thereof” (AMBIT BIOSCIENCES CORPORATION, priority 2011, dated 2018).

Assay [1] has as its target T1, FLT3 (Homo sapiens, UniProt P36888).
T1 construct: made in house
T1 sequence (P36888 27-993): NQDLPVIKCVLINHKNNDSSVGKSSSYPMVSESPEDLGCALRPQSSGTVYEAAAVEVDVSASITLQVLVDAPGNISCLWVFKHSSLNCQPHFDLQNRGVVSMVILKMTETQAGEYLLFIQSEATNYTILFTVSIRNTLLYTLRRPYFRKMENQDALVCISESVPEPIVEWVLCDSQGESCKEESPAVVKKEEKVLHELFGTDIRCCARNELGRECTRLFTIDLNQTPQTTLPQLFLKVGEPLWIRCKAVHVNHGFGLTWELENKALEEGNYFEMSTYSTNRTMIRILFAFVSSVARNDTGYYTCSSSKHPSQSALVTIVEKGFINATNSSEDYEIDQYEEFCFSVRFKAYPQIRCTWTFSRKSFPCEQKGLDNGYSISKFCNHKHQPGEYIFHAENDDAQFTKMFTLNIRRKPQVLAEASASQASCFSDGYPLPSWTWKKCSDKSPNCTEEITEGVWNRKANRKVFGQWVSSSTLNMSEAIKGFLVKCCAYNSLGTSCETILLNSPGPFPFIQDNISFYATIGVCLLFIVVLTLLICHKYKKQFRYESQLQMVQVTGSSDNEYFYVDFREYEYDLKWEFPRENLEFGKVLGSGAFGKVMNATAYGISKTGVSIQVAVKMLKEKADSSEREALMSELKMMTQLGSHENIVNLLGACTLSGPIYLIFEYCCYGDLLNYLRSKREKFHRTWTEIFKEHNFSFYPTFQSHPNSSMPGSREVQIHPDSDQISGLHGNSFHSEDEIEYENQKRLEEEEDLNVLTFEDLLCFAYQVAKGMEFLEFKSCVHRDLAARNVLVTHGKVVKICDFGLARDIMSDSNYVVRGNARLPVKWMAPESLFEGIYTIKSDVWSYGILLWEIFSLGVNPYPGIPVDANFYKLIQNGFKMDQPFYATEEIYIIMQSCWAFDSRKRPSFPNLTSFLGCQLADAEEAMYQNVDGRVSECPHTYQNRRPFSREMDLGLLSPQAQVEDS
In words: Competition binding assay, FLT3 Kd. Here is the method: (§1) Competition binding assays used herein were developed, validated and performed as described in Fabian et al., Nature Biotechnology 2005, 23, 329-336. Kinases were produced as fusions to T7 phage (See, Fabian et al. or WO04/015142) or alternatively, the kinases were expressed in HEK-293 cells and subsequently tagged with DNA for PCR detection (See, WO08/005310). For the binding assays, streptavidin-coated magnetic beads were treated with biotinylated affinity ligands for 30 min at room temperature to generate affinity resins. The liganded beads were blocked with excess biotin and washed with blocking buffer (SeaBlock (Pierce), 1% BSA, 0.05% Tween 20, 1 mM DTT) to remove unbound ligand and to reduce non-specific binding. Binding reactions were assembled by combining kinase, liganded affinity beads, and test compounds in 1× binding buffer (20% SeaBlock, 0.17×PBS, 0.05% Tween 20, 6 mM DTT). Test compounds were prepared as 100× stocks in DMSO and diluted into the aqueous environment. Kds were determined using an eleven point threefold serial dilutions. DMSO or control compounds were was added to control assays lacking a test compound. Primary screen assays were performed in polypropylene 384-well plates in a final volume of 20-40 μL, while Kd determinations were performed in polystyrene 96-well plates in a final volume of 135 μL. The assay plates were incubated at room temperature with shaking for 1 hour to allow the binding reactions to reach equilibrium, and the affinity beads were washed extensively with wash buffer (1×PBS, 0.05% Tween 20) to remove unbound protein. The beads were then resuspended in elution buffer (1×PBS, 0.05% Tween […] non-biotinylated affinity ligand) and incubated at room temperature with shaking for 30 min. The kinase concentration in the eluates was measured by quantitative PCR.

In assay [2] the target is T2, KIT (Homo sapiens, UniProt P10721).
T2 construct: made in house
The assay is described as follows: Competition binding assay, KIT Kd. Here is the method:
as §1

Assay [3] deals with T3, PDGFRβ (Homo sapiens, UniProt P09619).
T3 construct: made in house
In words: Competition binding assay, PDGFRβ Kd. The protocol:
as §1

Assay [4] deals with T4, CSF1R (Homo sapiens, UniProt P07333). In words: HEK293 CSF1R phosphorylation MSD assay. In kind it is cell-based. Also noted: expressed in transfected cells; host or cells: HEK293. To be noted: read-out: HEK293 pCSF1R M-CSF MSD:IC50. Here is the method:
The compounds disclosed herein were tested in a CSF1R phosphorylation assay to determine their cellular potency against CSF1R. A HEK293 cell line expressing CSF1R fused to FK506 binding protein (FKBP) as a molecular tag was generated. Inhibition of CSF1R kinase activity will prevent ligand-stimulated autophosphorylation of the CSF1R-FKBP in intact cells. Subsequent cell lysates are assayed in a sandwich ELISA employing the electrochemiluminescent Meso Scale Discovery (MSD) technology for the presence of the phosphorylated (p)CSF1R-FKBP. This assay determines the potency of compounds as CSF1R inhibitors by measuring the reduction in the amount of pCSF1R with increasing doses of compounds added to the cells prior to M-CSF stimulation.
On day one of the experiment, HEK293-CSF1R-FKPB cells, maintained in DMEM, with L-glutamine (Mediatech), 10% FBS, and 100 units/mL Penicillin/Streptomycin, were seeded at 50,000 cell/well in a volume of 100 μL per well in 96-well Cell Bind plates (Costar). The cells were cultured overnight at 37° C. under 5% CO2. To prepare the plates used in the MSD assay, a 330 nM biotin-FK506 (in TBS pH 7.2) solution was added at 30 μL per well to streptavidin-coated 96-well plates (MSD), and incubated overnight at room temperature, shaking at 500 rpm on an orbital shaker.
On day two, compounds diluted in DMSO were added to the cells in duplicate plates at 9 different concentrations with half-log intervals, plus DMSO only control, alongside a reference compound serving as a positive control. Final DMSO concentration was 0.5% in a volume of 200 μL per well. The compounds were allowed to incubate with the cells for 2 h at 37° C. under 5% CO2. At the end of the incubation, human M-CSF (R&D Systems) was added for 5 min to a final concentration of 50 ng/mL to stimulate CSF1R phosphorylation. Cells were lysed for 20 min, and the lysates were applied to the washed, FK506-coated MSD plates, and incubated overnight at 4° C. shaking at 500 rpm.
On day three, the MSD plates were washed, and the captured CSF1R-FKBP was assayed sequentially for phosphorylation using mouse anti-phosphotyrosine antibody (Millipore) and Sulfo-TAG goat anti-mouse IgG antibody (MSD), and detected on a Sector Imager 6000 instrument (MSD).
A single IC50 value for each compound was determined by averaging the IC50s of the duplicates calculated using Igor Pro 6 software, and represents the compound concentration that achieves a 50% inhibition of ligand-induced CSF1R phosphorylation compared to DMSO control.

The subject of assay [5] is M-NFS-60 cells. The assay is described as follows: M-NFS-60 cell proliferation assay (Alamar Blue). In kind it is cell-based, mouse. To be noted: read-out: CSF1R M-NFS-60 CTB:IC50. The protocol:
The compounds disclosed herein were tested in an M-NFS-60 cell proliferation assay to determine their cellular potency against CSF1R. M-NFS-60s are mouse monocytic cells that depend on the binding of the ligand M-CSF to its receptor, CSF1R, to proliferate. Inhibition of CSF1R kinase activity will cause reduced growth and/or cell death. This assay assesses the potency of compounds as CSF1R inhibitors by measuring the reduction of Alamar Blue reagent by viable cells.
On day one of the experiment, M-NFS-60 cells were maintained in RPMI complete medium (Omega Scientific) plus 10% FBS supplemented with 20 ng/mL of M-CSF (R&D Systems). 96-well TC-treated, flat bottom plates were seeded at 10,000 cell/well at a volume of 100 μL per well. The cells were cultured overnight at 37° C. under 5% CO2.
On day two, compounds were added to the cells at 9 different concentrations, with half-log intervals alongside a control reference compound serving as a positive control. Final DMSO concentration was kept at 0.5% for a final volume of 200 μL. The compounds were allowed to incubate with the cells for 72 hours at 37° C. under 5% CO2.
On day five of the experiment, 40 μl of Alamar Blue reagent was added to each well and allowed to incubate for 3 hours. Alamar Blue fluorescence was read using SoftMax Pro software at 560 nm (excitation) and 590 nm (emission). IC50s were generated as an average of duplicates and represents the concentration of test compound that achieves 50% inhibition of cellular proliferation compared to control.
For orientation: The colour change of resazurin is a common sign of viable cells or microbes.

For assay [6], the target named is T4, CSF1R. The assay is described as follows: Competition binding assay, CSF1R Kd. Also noted: made in house. Here is the method:
as §1

Where [7] appears, read: 2 h compound, human M-CSF 50 ng/mL for 5 min.
[8] abbreviates: Mus musculus, 72 hours incubation, M-CSF 20 ng/mL.

Read-outs that look alike come from different tables or passages of the source.

For orientation: Kd means the free concentration of one partner at which half of the binding sites on the other are occupied at equilibrium, for simple one-to-one binding. Usually IC50 stands for the concentration at which inhibition is half-maximal.

T2 sequence (P10721 26-976): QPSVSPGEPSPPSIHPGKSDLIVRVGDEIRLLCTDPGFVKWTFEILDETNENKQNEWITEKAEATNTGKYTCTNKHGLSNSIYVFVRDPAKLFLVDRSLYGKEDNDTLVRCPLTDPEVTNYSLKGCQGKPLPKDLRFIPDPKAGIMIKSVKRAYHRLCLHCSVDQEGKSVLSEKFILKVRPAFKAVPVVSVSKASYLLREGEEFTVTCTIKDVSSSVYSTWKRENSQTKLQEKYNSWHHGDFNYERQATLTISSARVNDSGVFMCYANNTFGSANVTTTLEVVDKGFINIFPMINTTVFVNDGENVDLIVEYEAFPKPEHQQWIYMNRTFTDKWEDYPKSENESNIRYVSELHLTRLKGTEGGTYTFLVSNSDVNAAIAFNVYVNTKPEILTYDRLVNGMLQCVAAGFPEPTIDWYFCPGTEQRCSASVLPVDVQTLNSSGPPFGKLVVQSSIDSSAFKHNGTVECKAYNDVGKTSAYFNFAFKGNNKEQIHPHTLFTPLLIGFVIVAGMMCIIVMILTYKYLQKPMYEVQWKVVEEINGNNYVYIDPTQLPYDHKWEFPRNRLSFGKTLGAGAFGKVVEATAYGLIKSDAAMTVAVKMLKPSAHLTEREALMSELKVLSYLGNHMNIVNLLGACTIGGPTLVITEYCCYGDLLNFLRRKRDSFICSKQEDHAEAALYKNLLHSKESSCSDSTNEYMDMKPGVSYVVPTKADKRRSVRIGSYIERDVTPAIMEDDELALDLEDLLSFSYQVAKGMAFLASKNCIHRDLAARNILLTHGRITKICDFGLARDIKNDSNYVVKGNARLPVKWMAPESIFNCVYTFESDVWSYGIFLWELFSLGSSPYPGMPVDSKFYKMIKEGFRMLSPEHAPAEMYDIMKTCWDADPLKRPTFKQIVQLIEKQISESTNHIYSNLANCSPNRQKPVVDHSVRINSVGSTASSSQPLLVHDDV
T4 sequence (P07333 20-972): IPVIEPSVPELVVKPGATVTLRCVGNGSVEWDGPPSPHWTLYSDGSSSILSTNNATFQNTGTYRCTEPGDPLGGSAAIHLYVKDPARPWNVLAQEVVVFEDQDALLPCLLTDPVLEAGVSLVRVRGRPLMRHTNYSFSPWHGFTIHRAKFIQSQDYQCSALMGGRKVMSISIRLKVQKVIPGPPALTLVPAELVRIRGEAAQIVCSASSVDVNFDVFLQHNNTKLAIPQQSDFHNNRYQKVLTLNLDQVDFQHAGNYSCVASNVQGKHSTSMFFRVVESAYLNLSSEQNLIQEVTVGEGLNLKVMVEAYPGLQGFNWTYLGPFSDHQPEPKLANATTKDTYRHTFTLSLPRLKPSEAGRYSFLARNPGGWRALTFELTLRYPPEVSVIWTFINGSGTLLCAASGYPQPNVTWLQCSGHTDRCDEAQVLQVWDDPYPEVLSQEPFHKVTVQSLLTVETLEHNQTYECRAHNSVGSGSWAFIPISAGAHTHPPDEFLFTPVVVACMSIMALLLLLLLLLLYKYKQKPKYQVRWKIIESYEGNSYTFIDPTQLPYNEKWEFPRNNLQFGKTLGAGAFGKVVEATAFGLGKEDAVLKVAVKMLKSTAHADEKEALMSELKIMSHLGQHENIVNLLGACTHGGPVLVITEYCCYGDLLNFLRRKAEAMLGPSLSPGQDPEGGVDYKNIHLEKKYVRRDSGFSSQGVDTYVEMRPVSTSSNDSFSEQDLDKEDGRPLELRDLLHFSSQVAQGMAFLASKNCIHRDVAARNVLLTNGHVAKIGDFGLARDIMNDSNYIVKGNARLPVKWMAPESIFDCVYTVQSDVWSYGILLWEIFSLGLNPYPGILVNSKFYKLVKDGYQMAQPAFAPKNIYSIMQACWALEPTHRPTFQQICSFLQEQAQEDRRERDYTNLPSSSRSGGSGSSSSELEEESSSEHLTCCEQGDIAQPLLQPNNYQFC
T3 sequence (P09619 33-1106): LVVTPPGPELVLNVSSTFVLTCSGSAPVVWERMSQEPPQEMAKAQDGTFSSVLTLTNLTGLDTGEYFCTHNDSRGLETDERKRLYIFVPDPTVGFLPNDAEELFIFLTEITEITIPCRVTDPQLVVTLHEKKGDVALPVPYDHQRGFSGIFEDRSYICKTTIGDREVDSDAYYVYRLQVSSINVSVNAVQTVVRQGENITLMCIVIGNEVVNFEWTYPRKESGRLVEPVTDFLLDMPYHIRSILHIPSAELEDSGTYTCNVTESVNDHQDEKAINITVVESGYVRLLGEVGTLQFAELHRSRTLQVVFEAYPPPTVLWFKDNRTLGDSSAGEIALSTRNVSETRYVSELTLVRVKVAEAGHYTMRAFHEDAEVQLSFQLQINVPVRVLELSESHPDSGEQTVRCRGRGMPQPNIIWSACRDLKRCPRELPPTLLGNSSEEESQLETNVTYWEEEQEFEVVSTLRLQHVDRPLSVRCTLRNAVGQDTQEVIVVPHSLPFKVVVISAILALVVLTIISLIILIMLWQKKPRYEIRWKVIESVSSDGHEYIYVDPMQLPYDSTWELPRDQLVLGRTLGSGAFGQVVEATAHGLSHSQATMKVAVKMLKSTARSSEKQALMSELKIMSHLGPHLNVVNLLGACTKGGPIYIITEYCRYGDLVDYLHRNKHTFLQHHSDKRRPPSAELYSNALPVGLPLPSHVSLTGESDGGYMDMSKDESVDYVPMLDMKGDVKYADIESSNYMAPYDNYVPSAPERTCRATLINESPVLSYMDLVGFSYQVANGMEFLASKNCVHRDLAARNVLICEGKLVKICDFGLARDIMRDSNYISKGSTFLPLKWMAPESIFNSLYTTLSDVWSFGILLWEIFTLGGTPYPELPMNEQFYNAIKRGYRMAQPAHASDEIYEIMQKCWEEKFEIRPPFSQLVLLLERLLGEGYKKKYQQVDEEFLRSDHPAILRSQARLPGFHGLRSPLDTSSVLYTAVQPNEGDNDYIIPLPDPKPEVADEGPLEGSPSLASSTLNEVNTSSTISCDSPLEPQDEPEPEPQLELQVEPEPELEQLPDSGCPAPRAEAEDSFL

For `O[C@@H]1Cc2ccccc2[C@H]1Nc1nc2ccc(Cn3cnc4cc(F)cnc43)cc2s1` [Example 69, (1R,2R)-1-((6-((6-fluoro-3H-imidazo[4,5-b]pyridin-3-yl)methyl)benzo[d]thiazol-2-yl)amino)-2,3-dihydro-1H-inden-2-ol], the Kd is 1000 to 5000 nM in assay [1], 100 to 500 nM in assay [2], no more than 50 nM in assay [3] and no more than 5 nM in assay [6]. Besides, the figures for the IC50 in assay [4] (setting [7]) and in assay [5] (setting [8]) were 50 to 200 nM and 50 to 400 nM, respectively.

With `COc1ccccc1Nc1nc2ccc(Cn3cnc4cc(F)cnc43)cc2s1` [Example 197, 6-((6-fluoro-3H-imidazo[4,5-b]pyridin-3-yl)methyl)-N-(2-methoxyphenyl)benzo[d]thiazol-2-amine], the Kd in assay [1] (competition binding) was greater than 5000 nM; in assay [2] (competition binding) it was 100 to 500 nM; in assay [3] (competition binding), 50 to 500 nM; in assay [6] (competition binding), 5 to 20 nM. For the same compound, the IC50 was greater than 500 nM in assay [4] (HEK293 cells, M-CSF stimulated CSF1R phosphorylation, MSD) and 400 to 1500 nM in assay [5] (Mus musculus, M-NFS-60 cell proliferation).

As to “(1R,2R)-1-((6-((4-(1-methyl-1H-pyrazol-4-yl)-1H-imidazol-1-yl)methyl)benzo[d]thiazol-2-yl)amino)-2,3-dihydro-1H-inden-2-ol or (1R,2R)-1-((6-((5-(1-methyl-1H-pyrazol-4-yl)-1H-imidazol-1-yl)methyl)benzo[d]thiazol-2-yl)amino)-2,3-dihydro-1H-inden-2-ol [Example 32]”, the Kd in assay [1] was 200 to 1000 nM; in assay [2], greater than 2000 nM; in assay [3], greater than 2000 nM; in assay [6] it was greater than 50 nM. Besides, the IC50 in assay [4] (setting [7]) was greater than 500 nM; in assay [5] (72 hours incubation, M-CSF 20 ng/mL), greater than 1500 nM.

Regarding `O[C@H]1CCCC[C@H]1Nc1nc2ccc(Cn3cnc4ccccc43)cc2s1` (racemic) [Example 1, 2-((6-((1H-benzo[d]imidazol-1-yl)methyl)benzo[d]thiazol-2-yl)amino)cyclohexanol], the Kd in assay [1] is 1000 to 5000 nM; in assay [2], 100 to 500 nM; in assay [3], 50 to 500 nM; in assay [6], 5 to 20 nM. For the same compound, the results for the IC50 in assay [4] (setting [7]) and in assay [5] (setting [8]) were 50 to 200 nM and 50 to 400 nM, respectively.

As to `CNC(=O)c1cnc2c(c1)ncn2Cc1ccc2nc(N[C@@H]3CCCC[C@H]3O)sc2c1` [Example 89, 3-((2-(((1R,2R)-2-hydroxycyclohexyl)amino)benzo[d]thiazol-6-yl)methyl)-N-methyl-3H-imidazo[4,5-b]pyridine-6-carboxamide], the Kd is 1000 to 5000 nM in assay [1], no more than 100 nM in assay [2], no more than 50 nM in assay [3] and 5 to 20 nM in assay [6]. For the same compound, the IC50 in assay [4] (setting [7]) was in the range of 50 to 200 nM; in assay [5] (setting [8]), 50 to 400 nM.

With `COc1cc2ncn(Cc3ccc4nc(Nc5ccccc5)sc4c3)c2cc1OC` [Example 22, 6-((5,6-dimethoxy-1H-benzo[d]imidazol-1-yl)methyl)-N-phenylbenzo[d]thiazol-2-amine], the Kd in assay [1] is 1000 to 5000 nM; in assay [2] it was 100 to 500 nM; in assay [3], greater than 2000 nM; in assay [6] it was 5 to 20 nM. In addition, the IC50 in assay [4] (setting [7]) was 50 to 200 nM; in assay [5] (setting [8]), 400 to 1500 nM.

In the case of `O[C@@H]1CCCC[C@H]1Nc1nc2ccc(Cc3c[nH]c4ncccc34)cc2s1` [Example 17, (1R,2R)-2-((6-((1H-pyrrolo[2,3-b]pyridin-3-yl)methyl)benzo[d]thiazol-2-yl)amino)cyclohexanol], the Kd was 200 to 1000 nM in assay [1], greater than 2000 nM in assay [2], 50 to 500 nM in assay [3] and 5 to 20 nM in assay [6]. Also, the IC50 in assay [4] (setting [7]) lay within 200 to 500 nM; in assay [5] (setting [8]), 400 to 1500 nM.

With `O[C@@H]1CCCC[C@H]1Nc1nc2ccc(Cn3cnc4ccncc43)cc2s1` [Example 71, (1R,2R)-2-((6-((3H-imidazo[4,5-c]pyridin-3-yl)methyl)benzo[d]thiazol-2-yl)amino)cyclohexanol], the Kd was greater than 5000 nM in assay [1], greater than 2000 nM in assay [2], 500 to 2000 nM in assay [3] and 5 to 20 nM in assay [6]. Further, the values for the IC50 in assay [4] (setting [7]) and in assay [5] (setting [8]) were 200 to 500 nM and 400 to 1500 nM, respectively.
